{"source": "patent US7560117B2", "about": "“Foamy virus mutant reverse transcriptase” (priority 2001, dated 2009)", "key": {"[1]": {"molecular_target": "HIV-1 RT (Human immunodeficiency virus type 1 group M subtype B, UniProt P03366)", "experiment": "3TCTP inhibition assay, M13 template, radiolabeled dCTP incorporation", "conditions": "1.0 μM 3TCTP; activity without drug set at 100%", "method": "The 3TCTP inhibition assays were performed using the M13 template and the −47 primer. The −47 sequencing primer was annealed to the single stranded M13mp18 DNA by heating to 95° C. and slowly cooling to room temperature. The template-primer was extended by adding 1.0 μg of RT in 25 mM Tris(pH 8.0), 75 mM KCl, 8.0 mM MgCl2, 100 μg/ml BSA, 10 mM CHAPS, 10 μM each of dATP, dGTP, and dTTP, 2.0 μM [α-^32P]dCTP, and the indicated concentrations of 3TCTP (Moravek Biochemicals, Brea, Calif.) in a 100 μl reaction volume. The mixture was incubated at 37° C. for 30 min, then halted by the addition of 3 ml of ice-cold trichloroacetic acid (TCA) and the precipitated DNA was collected by suction filtration through Whatman GF/C glass filters. The amount of incorporated radioactivity was determined by liquid scintillation counting.\nSamples were TCA precipitated, bound to glass filters, and incorporation of radiolabeled dCTP was measured. […] These levels of RT activity in the absence of drug were set at 100% activity for each recombinant RT."}, "[2]": {"test_system": "PFV", "conditions": "previous studies; cited from earlier work"}, "[3]": {"test_system": "PFV", "conditions": "virus producing cells treated with inhibitor"}, "[4]": {"test_system": "PFV", "assay_type": "cell-based, Prototype Foamy Virus (SFVcpz(hu))"}}, "data": [{"smiles": "Nc1ccn([C@@H]2CS[C@H](COP(=O)(O)OP(=O)(O)OP(=O)(O)O)O2)c(=O)n1", "note": "[3TCTP]", "values": [{"measurement": "activity retained by HIV-1 RT", "setting": "[1]", "result": 37, "unit": "%"}]}, {"smiles": "O=c1[nH]cnc2c1ncn2[C@H]1CC[C@@H](CO)O1", "note": "[ddI]", "values": [{"measurement": "specific inhibition of production of infectious PFV particles", "setting": "[2]", "result": "not"}]}, {"smiles": "Cc1cn([C@H]2C[C@H](N=[N+]=[N-])[C@@H](CO)O2)c(=O)[nH]c1=O", "note": "[AZT]", "values": [{"measurement": "specific decrease in infectivity", "setting": "[3]", "result": "greater than 10 fold"}, {"measurement": "specific inhibition of production of infectious PFV particles", "setting": "[2]", "result": "specific inhibition was demonstrated"}]}, {"smiles": "Nc1ccn([C@@H]2CS[C@H](CO)O2)c(=O)n1", "note": "[3TC]", "values": [{"measurement": "specific inhibition of production of infectious PFV particles", "setting": "[2]", "result": "not"}]}, {"smiles": "Nc1nc(=O)n(C2CSC(CO)O2)cc1F", "note": "(stereo not drawn) [FTC, beta-2′,3′-dideoxy-5-fluoro-3′-thiacytidine]", "values": [{"measurement": "Titer Relative to No-Drug Control, Pretreated", "setting": "[4]", "result": 122}]}]}
